# Assay results as given in article doi:10.1101/2022.07.25.501355v1, “Building artificial plant cell wall on lipid bilayer by assembling polysaccharides and engineered proteins” (biorxiv, 2022).
# Legend:
# Janus lectin RSL-CBM77Rf = format: binding, Ralstonia nicotianae / Ruminococcus flavefaciens; settings: 25 °C; 20 mM Tris pH 7.5, 100 mM NaCl (ligand in 20 mM Tris pH 7.5); site on CBM77Rf part; ligand mainly DP7 with some DP8
# diCBM77Rf = target: T1, diCBM77Rf (Ruminococcus flavefaciens, UniProt A0A1A9TA81); test: isothermal titration calorimetry; format: binding; settings: 25 °C; 20 mM Tris pH 7.5, 100 mM NaCl (ligand in 20 mM Tris pH 7.5); N fixed at 2 in the fit; no full sigmoid; ligand mainly DP7 with some DP8
# T1 construct: CBM77 domain only; N-terminal His-tag cut by TEV; E. coli BL21(DE3)
# T1 sequence (A0A1A9TA81 2-115): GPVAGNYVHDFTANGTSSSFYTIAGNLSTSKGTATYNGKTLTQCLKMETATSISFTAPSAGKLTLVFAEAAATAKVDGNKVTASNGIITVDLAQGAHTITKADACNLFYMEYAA
# Description: isothermal titration calorimetry on diCBM77Rf
compound,measurement,setting,value
O=C(O)[C@H]1O[C@H](O[C@@H]2[C@H](O)[C@@H](O)[C@@H](O[C@@H]3[C@H](O)[C@@H](O)[C@@H](O[C@@H]4[C@H](O)[C@@H](O)[C@@H](O[C@@H]5[C@H](O)[C@@H](O)[C@@H](O[C@@H]6[C@H](O)[C@@H](O)[C@@H](O[C@@H]7[C@H](O)[C@@H](O)C(O)O[C@@H]7C(=O)O)O[C@@H]6C(=O)O)O[C@@H]5C(=O)O)O[C@@H]4C(=O)O)O[C@@H]3C(=O)O)O[C@@H]2C(=O)O)[C@H](O)[C@@H](O)[C@H]1O (some centres unmarked) [GalA_DP7],Kd,Janus lectin RSL-CBM77Rf,103 ± 15 µM
same,Kd,diCBM77Rf,1280 ± 100 µM
